In patent publication US6048856A, “Heterocyclic compounds” (Novo Nordisk A/S, priority 1997, dated 2000):
Counter-ions that a name gives are not always drawn.

Tested on: histamine induced paw oedema
Test: Histamine induced paw oedema test in rats
Format: in vivo, male Sprague-Dawley rats
Conditions: Rattus norvegicus, ip; intraperitoneal, 15 minutes before anaesthetics; paw swelling 20 minutes after histamine 50 microliter
Description: Compounds of formula I may be used to treat all painful, hyperalgesic and/or inflammatory conditions in which C-fibres play a pathophysiological role by eliciting neurogenic pain or inflammation, i.e.:
I. Histamine Induced Paw Oedema
The rat histamine paw oedema test was performed essentially as described by Amann et al. (Europ. J. Pharmacol. 279, 227-231, 1995). In brief 250-300 g male Sprague-Dawley rats were anaesthetized with pentobarbital sodium, and placed on a 32 degree Celsius heated table. Ten minutes later histamine (50 micoliter, 3 mg/ml) was injected in the right hind paw and 20 minutes hereafter the paw swelling was determined by water plethysmography (Ugo Basile). Test compounds were administered intraperitoneally at 15 minutes before the anaesthetics.
Values for inhibition of histamine induced oedema response for some representative compounds are recorded in table 1.

Molecule `N#CC(c1ccccc1)C1CCN(CCC=C2c3ccccc3CCc3ccccc32)CC1` (stereo not shown) [Example 5, 2-(1-(3-(10,11-Dihydro-5H-dibenzo[a,d]cyclohepten-5-ylidene)-1-propyl)-4-piperidyl)-2-phenylacetonitrile hydrochloride] has an inhibition at 1 mg/kg of 30%.
